Read-outs that look alike come from different tables or passages of the source.

Series [1] can be described thus: in vivo. As to conditions: male, CD-1, mouse, po.
Protocol: (§1) The whole blood samples (0.5 mL) were collected into syringes that were prefilled with 2.5 mL of ice-cold 0.1% formic acid in acetonitrile. The volume ratio of the whole blood to 0.1% formic acid in acetonitrile was 1/5 (v/v). Samples were frozen (-70°C) until analyzed by LC-MS/MS.
(§2) Standard curves and quality control (QC) samples were prepared fresh on the day of analysis by serial dilution of the standard mixture in quenched whole blood (1 part of blood to 5 parts of 0.1% formic acid in acetonitrile) and centrifuged. […] The frozen study samples were thawed in an ice/water bath and centrifuged. Supernatant (50 μL) from standards, QC samples, and study samples was transferred to a 96-well plate and dried completely under nitrogen. The dried residues were reconstituted with 100 μL of 0.1% formic acid in water containing internal standard (5 ng/mL of ^15N/^13C3-RE-024-02) and analyzed by LC-MS/MS.
(§3) LC-MS/MS analysis for blood pharmacokinetic samples: Samples were analyzed using an Agilent 1100 binary pump (Agilent Technologies, Santa Clara, CA, USA), connected to an AB Sciex API 6500 mass spectrometer (SCIEX, Framingham, MA, USA). An electrospray ionization source was used, scanning in the positive mode. […] The chromatography column was a Varian Metasil AQ 120–5 C18 column, 5 μm, 50 x 2.00 mm (Part No. A0530050X020) at ambient temperature, with a 0.5 mL/min flow rate and a 20 μL injection volume. Mobile phase (A) consisted of 0.1% formic acid in water; while mobile phase (B) consisted of 0.1% formic acid in acetonitrile:water (9:1, v/v).
(§4) Quantitation of in vivo samples: Peak areas were integrated using Analyst software (AB Sciex, Concord, Ontario, Canada). […] Calibration standards (at a minimum 7 per curve) were fit by linear regression with (1/x^2) weighting. QC samples were used (triplicate) at 3 concentrations for all tandem mass spectrometry (MS/MS) runs.
(§5) Pharmacokinetic calculations: PK analysis was performed using Phoenix WinNonlin®, Build 6.3.0.395 (Certara, Princeton, NJ, USA) using a non-compartmental model (PO dose = model 200 for extravascular dosing). […] Post-dose concentrations below the limit of quantitation (BLQ) were omitted from calculation.
The conditions of series [2]: male, Sprague-Dawley, rat, in vivo.
The nature of series [3]: in vivo. As to conditions: male, C57Bl6, mouse, po, 700 mg/kg.
Protocol: (§6) Mice were anesthetized using isoflurane (2%, 800 mL/min O2).
(§7) For oral dosing experiments, MetaQuant microdialysis probes (regenerated cellulose membrane, BrainLink, the Netherlands) were inserted into the striatum (3 mm exposed surface). Coordinates for the tips of the probes for mice were anterior-posterior (AP) = +0.8 mm from bregma, lateral (L) = -1.7 mm from midline, and ventral (V) = -4.0 mm from dura, the toothbar set at 0 mm.
(§8) Microdialysis animal dosing and sample collection: Adult non-fasted male C57Bl6 mice (20–29 g; Harlan Laboratories, Livermore, CA), and Macaca fascicularis (4–9 kg, 3–6 yr old) were used for the experiments. For oral dosing, fosmetpantotenate was formulated as a solution in 20% hydroxypropyl-beta-cyclodextrin in 50 mM citrate buffer in water pH 5.0 and administered using a dose volume of 10 mL/kg. Mice (N = 6 serially sampled) received fosmetpantotenate as a single oral dose at 700 mg/kg and monkeys received a single oral dose at either 100 mg/kg (N = 4 serially sampled) or 300 mg/kg (N = 2 serially sampled).
(§9) Microdialysis: On the morning of the microdialysis experiment, a MetaQuant probe was inserted into the guide shaft targeting the head of the caudate nucleus and perfused at a rate of 0.15 μL/min aCSF containing 0.2% (w/v) BSA, with a carrier flow of 0.8 μL/min of ultrapure water.
(§10) A single 30 min pre-dose basal dialysate sample was collected from mice over -0.5 to 0 h, and three 30 min basal samples from monkeys over -1.5 to 0 h. Fosmetpantotenate was administered at t = 0, and 30 min dialysate samples were collected for an additional 4 h for mice and 3 h for monkeys.
(§11) Sample preparation for mouse dialysate samples: Concentrations of fosmetpantotenate, PA, and PPA in mouse dialysate were determined by Nextcea, Inc, Woburn, MA, using LC-MS/MS. Standard curves and QC samples containing fosmetpantotenate (D1 and D2) and the surrogate analytes for PA and PPA (^15N/^13C3-PA and ^15N/^13C3-PPA) were prepared fresh in 0.1% formic acid in water. Frozen study mouse dialysate samples were thawed in ice/water bath. Standards, QC samples, and thawed study dialysate samples (20 μL) were mixed with 20 μL 0.1% formic acid in water containing internal standard (50 ng/mL of ^15N/^13C3-fosmetpantotenate) and analyzed by LC-MS/MS.
(§12) LC-MS/MS analysis for mouse dialysate samples: Concentrations of fosmetpantotenate, PA, and PPA in dialysate from mice were determined by using LC-MS/MS conditions described for blood PK analysis by Nextcea, except dialysate samples were analyzed using an ACIEX API 5000 and flow rate was increased to 0.6 mL/min.
(§13) Quantitation of in vivo samples: Peak areas were integrated using Analyst software (AB Sciex, Concord, Ontario, Canada). Calibration curves for all blood samples from mouse and rat PK studies and mouse dialysate samples were prepared by plotting the analyte to internal standard (^15N/^13C3-fosmetpantotenate) peak area ratio vs concentration.
A short description of series [4]: in vivo. As to conditions: male, Sprague-Dawley, rat, po.
A short description of series [5]: Pharmacokinetics in whole blood, CD-1 mice. As to conditions: male, CD-1, mouse, whole blood, oral, 100 mg/kg, Conc., blood; fosmetpantotenate 100 mg/kg PO; 2 hr; individual animals.
Protocol: as §1, §2, §3, §4, §5
The test system of series [6] is porcine brain endothelial cell (PBEC) co-culture model.
Protocol: (§14) Permeability studies were performed after 2 days of co-culture with rat astrocytes. […] In each filter used for transport, a paracellular marker was included as an internal control to monitor the integrity of the cell monolayer. The day of the experiment, culture medium was removed and cells on Transwell inserts were pre-incubated for 30 min with Hank's Balanced Salt Solution (HBSS) containing 20 mM Hepes pH 7.4 and 0.1% bovine serum albumin (BSA). […] Aliquots from the basal compartment were taken after 1 h; fluorescence was measured using a fluorescence detector. The permeability coefficient of the total system was calculated as follows: P[cm/s]=Vd×ΔMr/A×Md×Δt Where:
(§15) To correct for the contribution of the porous polycarbonate membrane of the filter in the absence of cells, the permeability was also determined for the cell-free system. Contribution of the endothelial cell monolayer to the permeability of the cell and filter system was determined by the following equation: 1/Pe=1/Pt-1/Pf Where the total permeability of the system is denoted as Pt, the cell-free filter as Pf, and the endothelial cell layer alone as Pe. The total resistance of the system towards passage of a substance is composed of 2 resistances in series: that of the cell monolayer and that of the filter; permeability is estimated as 1/resistance [27]. […] Mass balance was determined based on the amount of compound recovered in the donor and receiver chamber at the end of the assay relative to the amount added to the donor chamber at time 0.
Series [7] can be described thus: Microdialysis (striatal dialysate and blood) in cynomolgus monkeys. As to conditions: cynomolgus monkey, in vivo, po. In kind it is in vivo, cynomolgus monkey. The procedure: Monkeys were sedated by intramuscular (i.m.) ketamine administration and cannulated for intravenous (i.v.) administration of propofol infusion (initiated 15–30 min after ketamine administration). Subsequently, the animals were placed in an magnetic resonance imaging (MRI)-compatible stereotaxic frame (Kopf Model 1430), and T1 and T2 weighted scans (for up to 1 h) were carried out with a 7 cm loop-coil in a 3 Tesla Siemens Magnetom TIM Trio (Germany). To derive the coordinates, Digital Imaging and Communications in Medicine (DICOM) files were transformed into Neuroimaging Informatics Technology Initiative (NIFTI) format. NIFTI-compatible images were loaded into 3D viewer software (MRIcro version 1.40 build 1), and the stereotaxic zero in the MRI image was determined using the coordinates of the earbar-tips. Coordinates for placement of the guide cannulas were calculated for every individual animal by use of MRI images and a primate brain map.
On a separate day, microdialysis guide cannulas were placed bilaterally in the head of the caudate nucleus using the same MRI compatible stereotaxic frame (Kopf Model 1430), under isoflurane anesthesia. Prior to surgery, animals were administered ketamine (i.m.), and subsequently anesthetized with isoflurane (0.8%-2% inhalation) while artificially ventilated with O2/N2O (40/60) at 60 to 80 mL tidal volume via an intratracheal tube. During surgery, subcutaneous or i.v. fluids were provided. Animals were allowed to recover from the anesthesia in a warmed environment, single housed, and given at a minimum a 14-day post-surgery recovery time. The following medications were administered to reduce pain and inflammation, as well as reduce the chance of post-operative infection: meloxicam (Metacam 5 mg/mL, 0.2 mg/kg, buprenorphine (Temgesic, 0.3 mg/mL, 0.0038 mg/kg), enrofloxacine (25 mg/mL, 5 mg/kg), and amoxicillin (150 mg/mL, 15 mg/kg).
Samples were stored in -80°C.
From monkeys only, whole blood samples (0.5 mL) were collected from the femoral vein at -1, 0, 1, 2, and 3 h relative to dosing and transferred immediately to chilled polypropylene 15 mL vials containing 2500 μL of 0.15% formic acid in acetonitrile, mixed, and placed on dry ice. After the collections samples were stored at -80°C.
Sample preparation for monkey dialysate and blood samples: Concentrations of fosmetpantotenate (D1 and D2), PA, and PPA in monkey dialysate and blood samples were determined by Brains On-Line LLC. […] For dialysate quantitation, standards and QC samples were prepared in control dialysate (0.2% BSA in aCSF: water: 0.04% ascorbic acid in aqueous 0.02 M formic acid [4.5:24:6 v/v/v]). Standards, QC samples, and dialysate (10 μL) were mixed with 6 μL 20 mM formic acid and 0.01% ascorbic acid in water containing internal standard (10 ng/mL of ^15N/^13C3-PA) and analyzed by LC-MS/MS. Blood standards and QC samples were prepared in supernatant from control monkey blood which had been treated with 5 volumes of 0.15% formic acid in acetonitrile. Endogenous levels >LLOQ were detected for PA in control quenched blood only and quantitated at 56.56 nM based on calibration standard prepared in solvent. To compensate for endogenous PA in the calibration curve control blood, PA standard curve concentrations were spiked plus endogenous levels. Sample work-up of blood involved diluting 10 μL supernatant from study blood samples, standards, and QC samples with 90 μL of 20 mM formic acid and 0.01% ascorbic acid in water, then treating with 4 μL 20 mM formic acid and 0.01% ascorbic acid in water containing internal standard (10 ng/mL of ^15N/^13C3-PA) and analyzing by LC-MS/MS.

A short description of series [8]: in vivo. As to conditions: cynomolgus monkey, po, 300 mg/kg.
For series [9] the following is noted: male, CD-1, mouse, in vivo.
Protocol: as §1, §2, §3, §4, §5
The conditions of series [10]: male, C57Bl6, mouse, in vivo, po, 700 mg/kg.
Protocol: as §6, §7, §8, §9, §10, §11, §12, §13
For series [11], the system named is porcine brain endothelial cell (PBEC) co-culture model. In words: In vitro blood-brain barrier permeability (PBEC/rat astrocyte co-culture). As to conditions: in words.
Protocol: as §14, §15
Experiment in series [12]: as above
Protocol: as §14, §15
As to conditions: pH 7.4, In Vitro Measured Papp, mean ± SD (n = 3).

[13] abbreviates: PA Concentration in Mouse Striatal Dialysate (Corrected for Dilution).
Where [14] appears, read: PA Concentration in Mouse Striatal Dialysate (Corrected for Dilution), Mean.

Consider `CC(C)(CO)[C@@H](O)C(=O)NCCC(=O)O` [PA, pantothenate], for which the AUC (commonly the area under the concentration-time curve, a measure of exposure) in “in vivo [1]” (100 mg/kg) was determined as 3.4 µM·h; in the series “in vivo [1]” (300 mg/kg), 5.76 µM·h; in “in vivo [1]” (700 mg/kg) it was 10.5 µM·h; in “in vivo [3]”, 0.154 ± 0.105 µM·h; in “in vivo [4]” (100 mg/kg), 8.68 µM·h; in the series “in vivo [4]” (300 mg/kg), 32.5 µM·h. The AUC in the series “in vivo [4]” (700 mg/kg) is 40.1 µM·h; in series [7] (300 mg/kg), 2.17 µM·h; in [7] (cynomolgus, 100 mg/kg) it was 0.467 ± 0.152 µM·h; in series [7] (cynomolgus, 300 mg/kg) it was 9.34 µM·h; in “in vivo [8]” it was 3.35 µM·h. Further, the Cmax – broadly, the highest concentration seen after dosing – in “in vivo [1]” (100 mg/kg) was found to be 683 nM; in the series “in vivo [1]” (300 mg/kg), 771 nM; in the series “in vivo [1]” (700 mg/kg) it was 1610 nM; in the series “in vivo [3]” (PA Cmax) it was 88 ± 74.3 nM; in “in vivo [3]” (total PA Cmax), 130 nM; in “in vivo [4]” (100 mg/kg), 1340 nM. The Cmax stood at 4750 nM in the series “in vivo [4]” (300 mg/kg); 7900 nM in the series “in vivo [4]” (700 mg/kg); 1300 nM in series [7] (300 mg/kg); 255 ± 70 nM in series [7] (cynomolgus, 100 mg/kg); 4270 nM in series [7] (cynomolgus, 300 mg/kg); 589 nM in the series “in vivo [8]”. Besides, the figures for the “fold increase in AUC as dose increased from 100 to 700 mg/kg” value in series [2] and in [9] were 4.6 fold and 3.1 fold, respectively. For the same molecule, the “fold increase in Cmax as dose increased from 100 to 700 mg/kg” value in series [2] is 5.9 fold; in series [9], 2.4 fold. For the same molecule, the concentration at 0 h in “in vivo [3]” (setting [13]) turned out to be 52.8 nM; in “in vivo [3]” (setting [14]), 50.7 nM. The concentration at 0.5 h was determined as 65.1 nM in the series “in vivo [3]” (setting [13]) and 57.7 nM in the series “in vivo [3]” (setting [14]). The concentration at 1 h in the series “in vivo [3]” (setting [13]) is 77.7 nM; in the series “in vivo [3]” (setting [14]), 75.6 nM. The concentration at 3.5 h in the series “in vivo [3]” (setting [14]) was 115 nM. This molecule also gave a concentration at 4 h in the series “in vivo [3]” (setting [14]) of 128 nM. Also, in series [5], the concentration at 2 h came to 282 nM. In [6], the “blood-brain barrier permeability classification” value is “permeable”. Also, in the series “in vitro” (pH 7.4, In Vitro Measured Papp), the apparent permeability coefficient (Papp) (usually the rate of passage across a membrane or cell layer, normalised by area and donor concentration) at 1 h was determined as 4.2 ± 1.3 ×10⁻⁶ cm/s. Moreover, the Papp at 60 min in “in vitro” (pig, pH 7.4, Papp) was determined as 5.6 ×10⁻⁶ cm/s. For the same molecule, the “PA Concentration in Mouse Striatal Dialysate (Corrected for Dilution), Mean” value is 61.5 nM in [10] (1.5 h), 80.7 nM in series [10] (2 h), 87.6 nM in series [10] (2.5 h) and 95.3 nM in [10] (3 h).

`C=CCN1CC[C@]23c4c5ccc(O)c4O[C@H]2C(=O)CC[C@@]3(O)[C@H]1C5` [Naloxone]: the “blood-brain barrier permeability classification” value in [11] is “high permeability range”. Also, the Papp at 1 h in [12] was 42.3 ± 11 ×10⁻⁶ cm/s.

The values are drawn from paper PMC5844530, “Fosmetpantotenate (RE-024), a phosphopantothenate replacement therapy for pantothenate kinase-associated neurodegeneration: Mechanism of action and efficacy in nonclinical models” (PLoS ONE, 2018).
